Experimental data published in ChEMBL document CHEMBL1158462, “Recent advances in the development of polyamine analogues as antitumor agents” (J Med Chem, 2009).
Blank lines part the entries; values can stand above or below the compound they belong to.

Key:
NCI-H157 = assay: Antitumor activity against human NCI-H157 cells by MTT assay; type: functional, cell-based
[1] = Antitumor activity against human H82 cells; type: functional, cell-based; settings: NCI-H82
NCI-H69 = assay: Antitumor activity against human H69 cells; type: functional, cell-based
A549 = assay: Antitumor activity against human A549 cells; type: functional, cell-based
[2] = Antitumor activity against human U251MG cells; type: functional, cell-based; settings: U-251
DU-145 = assay: Antitumor activity against human DU145 cells; type: functional, cell-based
PC-3 = assay: cells; settings: Homo sapiens
Description: Antitumor activity against human PC3 cells

MCF7 = assay: cells; type: functional, cell-based; settings: Homo sapiens
Description: Antitumor activity against human MCF7 cells

HT-29 = assay: Antitumor activity against human HT-29 cells; type: functional, cell-based
[3] = biological target: T1, Histone deacetylase (Homo sapiens) (UniProt Q13547+O15379+Q9UBN7+Q92769+Q9UQL6+Q8WUI4+Q9BY41+Q96DB2+P56524+Q9UKV0+Q969S8); settings: HeLa, at 5 µM
Description: Inhibition of HDAC from human HeLa cells assessed as of histone H3 acetylation at 5 uM

MCF-10A = assay: cells; type: functional, cell-based; settings: Homo sapiens
Description: Antitumor activity against human MCF10A cells

cells = settings: Mus musculus, ML1
Description: Antitumor activity against mouse ML1 cells

[4] = biological target: T1, Histone deacetylase (Homo sapiens); assay: Inhibition of HDAC from human HeLa cells assessed as induction of histone H3 acetylation at 1 uM; type: cell-based
L1210 = assay: Antitumor activity against mouse L1210 cells; type: functional, cell-based
Malme-3M = assay: Antitumor activity against human MALME-3M cells; type: functional, cell-based
LNCaP = assay: Antitumor activity against human LNCAP cells; type: functional, cell-based
DuPro = assay: Antitumor activity against human DuPro cells; type: functional, cell-based
MDA-MB-435 = assay: Antitumor activity against human MDA-MB-435 cells; type: functional, cell-based
Enterocytozoon bieneusi = assay: Antimicrobial activity against Enterocytozoon bieneusi; type: functional, organism-based

SMILES: CCNCCCNCCCNCCCNCCSCC
IC50 (NCI-H157): 300 nM

SMILES: CCNCCCNCCCNCCCNC(C)CC (stereo not drawn)
IC50 [1]: 800 nM | IC50 (NCI-H69): 800 nM | IC50 (NCI-H157): 1300 nM | IC50 (A549): 800 nM

SMILES: CCNCCCNCC1CCC1CNCCCNCC (stereo not drawn)
IC50 [2]: ≥ 100 nM | IC50 (DU-145): ≥ 100 nM | IC50 (PC-3): ≥ 100 nM | IC50 (MCF7): ≥ 100 nM | IC50 (HT-29): ≥ 100 nM | IC50 (A549): ≥ 100 nM

SMILES: C=C(C)CNCCCNCCCNCCCNCC
IC50 (NCI-H157): 700 nM

SMILES: CCNCC[C@@H](O)CNCCCCNC[C@H](O)CCNCC
IC50 (L1210): 600 nM

SMILES: CCNCCCNCCCNCCCNCC [BIS(ETHYL)NORSPERMINE]
IC50 (L1210): 200 nM | IC50 (Malme-3M): 200 nM

SMILES: CCNCCCCNCCCCNCCCCNCCCCNCC
IC50 (DU-145): 100 nM | IC50 (PC-3): 100 nM | IC50 (LNCaP): 100 nM

SMILES: CCNCCCNCCCNCCCNCC1CCCCCC1
IC50 [1]: 700 nM | IC50 (NCI-H157): 700 nM

SMILES: c1ccc(C(CCNCCCNCCCCNCCCNCCC(c2ccccc2)c2ccccc2)c2ccccc2)cc1
IC50 (NCI-H157): 3800 nM

SMILES: CC(/C=C/C(=O)NO)=C\[C@@H](C)C(=O)c1ccc(N(C)C)cc1 [TRICHOSTATIN]
IC50 (cells): 250 nM

SMILES: CCNCCCCNCCCCNCCCCNC/C=C/CNCCCCNCCCCNCCCCNCC
IC50 (DuPro): 130 nM | IC50 (DU-145): 130 nM | IC50 (MDA-MB-435): 130 nM | IC50 (PC-3): 130 nM | IC50 (LNCaP): 130 nM | IC50 (Enterocytozoon bieneusi): 130 nM

SMILES: CCNCCCCNCCCCNCCCCNCCCCNC/C=C/CNCCCCNCCCCNCCCCNCCCCNCC
IC50 (DuPro): 90 nM | IC50 (DU-145): 90 nM | IC50 (PC-3): 90 nM | IC50 (LNCaP): 90 nM

SMILES: CCNCCCNCCCNCCCNC(C)C
IC50 (NCI-H157): 1400 nM

Now from value to compound, other results behind:

IC50 [2]: > 30000 nM | IC50 (DU-145): > 30000 nM | IC50 (PC-3): > 30000 nM | IC50 (MCF7): > 30000 nM | IC50 (HT-29): > 30000 nM | IC50 (A549): > 30000 nM
SMILES: CCNCCCNCc1ccccc1CNCCCNCC

inhibition [3]: 42.6% | IC50 (MCF7): > 30000 nM
SMILES: Cc1cccc(NC(=O)c2ccc(CNC(=O)CCCCCCC(=O)NCCCNCCCCNCCC(c3ccccc3)c3ccccc3)cc2)c1
IC50 (MCF-10A): > 30000 nM

IC50 [1]: 900 nM | IC50 (NCI-H69): 900 nM | IC50 (NCI-H157): 1800 nM | IC50 (A549): 900 nM
SMILES: CCNCCCNCCCCNCCCNCCC(C)(C)C

IC50 (NCI-H157): 4600 nM
SMILES: c1ccc(C(CCNCCCCNCCCNCCC(c2ccccc2)c2ccccc2)c2ccccc2)cc1

IC50 (NCI-H157): 1700 nM
SMILES: CCNCCCNCCCCNCCCNCCC(C)C

IC50 (NCI-H157): 4200 nM
SMILES: CC(C)c1ccc(CNCCCCNCCCNCc2ccc(C(C)C)cc2)cc1

IC50 (cells): 10000 nM | inhibition [4]: 75%
SMILES: O=C(CCCCCCC(=O)NCCCNCCCCNCCC(c1ccccc1)c1ccccc1)NO

IC50 [2]: > 30000 nM | IC50 (DU-145): > 30000 nM | IC50 (PC-3): > 30000 nM | IC50 (MCF7): > 30000 nM | IC50 (HT-29): > 30000 nM | IC50 (A549): > 30000 nM
SMILES: CCNCCCNCC#CCNCCCNCC

inhibition [3]: 47% | IC50 (MCF7): > 30000 nM
SMILES: Nc1ccccc1NC(=O)c1ccc(CNC(=O)CCCCCCCC(=O)NCCCNCCCCNCCC(c2ccccc2)c2ccccc2)cc1
IC50 (MCF-10A): > 30000 nM

IC50 (NCI-H157): 2200 nM
SMILES: CCCCNCCCCNCCCCNCCCNCC

inhibition [3]: 43.7% | IC50 (MCF7): 27000 nM
SMILES: CC(C)(C)c1ccc(CNCCCCNC(=O)CCCCCCC(=O)c2ncco2)cc1
IC50 (MCF-10A): > 30000 nM

IC50 (NCI-H157): 4000 nM
SMILES: c1ccc(-c2ccccc2CNCCCCNCCCNCc2ccccc2-c2ccccc2)cc1

IC50 (Malme-3M): 1000 nM
SMILES: CCNCCCCNCCCCNCCCCNCC [DIETHYLHOMOSPERMINE]

IC50 (NCI-H157): 3600 nM
SMILES: FC(F)(F)Sc1ccc(CNCCCNCCCNCCCNCc2ccc(SC(F)(F)F)cc2)cc1

IC50 (NCI-H157): 4200 nM
SMILES: c1ccc(CCc2ccccc2CNCCCCNCCCNCc2ccccc2CCc2ccccc2)cc1

IC50 (DuPro): 140 nM | IC50 (DU-145): 140 nM | IC50 (PC-3): 140 nM | IC50 (LNCaP): 140 nM
SMILES: CCNC/C=C\CNCCCCNCCCCNC/C=C\CNCC

IC50 (DuPro): 80 nM | IC50 (DU-145): 250 nM | IC50 (PC-3): 80 nM | IC50 (LNCaP): 80 nM
SMILES: CCNC/C=C\CNCCCCNCCCCNCCCCNCC

IC50 (NCI-H157): 4200 nM
SMILES: CC(C)(C)c1ccc(CNCCCNCCCNCCCNCc2ccc(C(C)(C)C)cc2)cc1

IC50 (NCI-H157): 4200 nM
SMILES: c1ccc(-c2ccccc2CNCCCNCCCNCCCNCc2ccccc2-c2ccccc2)cc1
